{"source": "patent US20090017010A1", "about": "“NOVEL ARTEMIS/DNA-DEPENDENT PROTEIN KINASE COMPLEX AND METHODS OF USE THEREOF” (University of Southern California, priority 2002, published 2009)", "key": {"[1]": {"molecular_target": "T1, Artemis:DNA-PKcs complex (Homo sapiens, UniProt P78527)", "T1 construct": "Native DNA-PKcs was purified as described (Chan et al., 1996) except that HeLa cells were used as the source; made in house; host or cells: Artemis-myc-His: transfected 293T cells (Ni-NTA, then anti-myc immunobeads); DNA-PKcs: endogenous protein purified from HeLa cells", "T1 sequence (P78527 whole entry)": "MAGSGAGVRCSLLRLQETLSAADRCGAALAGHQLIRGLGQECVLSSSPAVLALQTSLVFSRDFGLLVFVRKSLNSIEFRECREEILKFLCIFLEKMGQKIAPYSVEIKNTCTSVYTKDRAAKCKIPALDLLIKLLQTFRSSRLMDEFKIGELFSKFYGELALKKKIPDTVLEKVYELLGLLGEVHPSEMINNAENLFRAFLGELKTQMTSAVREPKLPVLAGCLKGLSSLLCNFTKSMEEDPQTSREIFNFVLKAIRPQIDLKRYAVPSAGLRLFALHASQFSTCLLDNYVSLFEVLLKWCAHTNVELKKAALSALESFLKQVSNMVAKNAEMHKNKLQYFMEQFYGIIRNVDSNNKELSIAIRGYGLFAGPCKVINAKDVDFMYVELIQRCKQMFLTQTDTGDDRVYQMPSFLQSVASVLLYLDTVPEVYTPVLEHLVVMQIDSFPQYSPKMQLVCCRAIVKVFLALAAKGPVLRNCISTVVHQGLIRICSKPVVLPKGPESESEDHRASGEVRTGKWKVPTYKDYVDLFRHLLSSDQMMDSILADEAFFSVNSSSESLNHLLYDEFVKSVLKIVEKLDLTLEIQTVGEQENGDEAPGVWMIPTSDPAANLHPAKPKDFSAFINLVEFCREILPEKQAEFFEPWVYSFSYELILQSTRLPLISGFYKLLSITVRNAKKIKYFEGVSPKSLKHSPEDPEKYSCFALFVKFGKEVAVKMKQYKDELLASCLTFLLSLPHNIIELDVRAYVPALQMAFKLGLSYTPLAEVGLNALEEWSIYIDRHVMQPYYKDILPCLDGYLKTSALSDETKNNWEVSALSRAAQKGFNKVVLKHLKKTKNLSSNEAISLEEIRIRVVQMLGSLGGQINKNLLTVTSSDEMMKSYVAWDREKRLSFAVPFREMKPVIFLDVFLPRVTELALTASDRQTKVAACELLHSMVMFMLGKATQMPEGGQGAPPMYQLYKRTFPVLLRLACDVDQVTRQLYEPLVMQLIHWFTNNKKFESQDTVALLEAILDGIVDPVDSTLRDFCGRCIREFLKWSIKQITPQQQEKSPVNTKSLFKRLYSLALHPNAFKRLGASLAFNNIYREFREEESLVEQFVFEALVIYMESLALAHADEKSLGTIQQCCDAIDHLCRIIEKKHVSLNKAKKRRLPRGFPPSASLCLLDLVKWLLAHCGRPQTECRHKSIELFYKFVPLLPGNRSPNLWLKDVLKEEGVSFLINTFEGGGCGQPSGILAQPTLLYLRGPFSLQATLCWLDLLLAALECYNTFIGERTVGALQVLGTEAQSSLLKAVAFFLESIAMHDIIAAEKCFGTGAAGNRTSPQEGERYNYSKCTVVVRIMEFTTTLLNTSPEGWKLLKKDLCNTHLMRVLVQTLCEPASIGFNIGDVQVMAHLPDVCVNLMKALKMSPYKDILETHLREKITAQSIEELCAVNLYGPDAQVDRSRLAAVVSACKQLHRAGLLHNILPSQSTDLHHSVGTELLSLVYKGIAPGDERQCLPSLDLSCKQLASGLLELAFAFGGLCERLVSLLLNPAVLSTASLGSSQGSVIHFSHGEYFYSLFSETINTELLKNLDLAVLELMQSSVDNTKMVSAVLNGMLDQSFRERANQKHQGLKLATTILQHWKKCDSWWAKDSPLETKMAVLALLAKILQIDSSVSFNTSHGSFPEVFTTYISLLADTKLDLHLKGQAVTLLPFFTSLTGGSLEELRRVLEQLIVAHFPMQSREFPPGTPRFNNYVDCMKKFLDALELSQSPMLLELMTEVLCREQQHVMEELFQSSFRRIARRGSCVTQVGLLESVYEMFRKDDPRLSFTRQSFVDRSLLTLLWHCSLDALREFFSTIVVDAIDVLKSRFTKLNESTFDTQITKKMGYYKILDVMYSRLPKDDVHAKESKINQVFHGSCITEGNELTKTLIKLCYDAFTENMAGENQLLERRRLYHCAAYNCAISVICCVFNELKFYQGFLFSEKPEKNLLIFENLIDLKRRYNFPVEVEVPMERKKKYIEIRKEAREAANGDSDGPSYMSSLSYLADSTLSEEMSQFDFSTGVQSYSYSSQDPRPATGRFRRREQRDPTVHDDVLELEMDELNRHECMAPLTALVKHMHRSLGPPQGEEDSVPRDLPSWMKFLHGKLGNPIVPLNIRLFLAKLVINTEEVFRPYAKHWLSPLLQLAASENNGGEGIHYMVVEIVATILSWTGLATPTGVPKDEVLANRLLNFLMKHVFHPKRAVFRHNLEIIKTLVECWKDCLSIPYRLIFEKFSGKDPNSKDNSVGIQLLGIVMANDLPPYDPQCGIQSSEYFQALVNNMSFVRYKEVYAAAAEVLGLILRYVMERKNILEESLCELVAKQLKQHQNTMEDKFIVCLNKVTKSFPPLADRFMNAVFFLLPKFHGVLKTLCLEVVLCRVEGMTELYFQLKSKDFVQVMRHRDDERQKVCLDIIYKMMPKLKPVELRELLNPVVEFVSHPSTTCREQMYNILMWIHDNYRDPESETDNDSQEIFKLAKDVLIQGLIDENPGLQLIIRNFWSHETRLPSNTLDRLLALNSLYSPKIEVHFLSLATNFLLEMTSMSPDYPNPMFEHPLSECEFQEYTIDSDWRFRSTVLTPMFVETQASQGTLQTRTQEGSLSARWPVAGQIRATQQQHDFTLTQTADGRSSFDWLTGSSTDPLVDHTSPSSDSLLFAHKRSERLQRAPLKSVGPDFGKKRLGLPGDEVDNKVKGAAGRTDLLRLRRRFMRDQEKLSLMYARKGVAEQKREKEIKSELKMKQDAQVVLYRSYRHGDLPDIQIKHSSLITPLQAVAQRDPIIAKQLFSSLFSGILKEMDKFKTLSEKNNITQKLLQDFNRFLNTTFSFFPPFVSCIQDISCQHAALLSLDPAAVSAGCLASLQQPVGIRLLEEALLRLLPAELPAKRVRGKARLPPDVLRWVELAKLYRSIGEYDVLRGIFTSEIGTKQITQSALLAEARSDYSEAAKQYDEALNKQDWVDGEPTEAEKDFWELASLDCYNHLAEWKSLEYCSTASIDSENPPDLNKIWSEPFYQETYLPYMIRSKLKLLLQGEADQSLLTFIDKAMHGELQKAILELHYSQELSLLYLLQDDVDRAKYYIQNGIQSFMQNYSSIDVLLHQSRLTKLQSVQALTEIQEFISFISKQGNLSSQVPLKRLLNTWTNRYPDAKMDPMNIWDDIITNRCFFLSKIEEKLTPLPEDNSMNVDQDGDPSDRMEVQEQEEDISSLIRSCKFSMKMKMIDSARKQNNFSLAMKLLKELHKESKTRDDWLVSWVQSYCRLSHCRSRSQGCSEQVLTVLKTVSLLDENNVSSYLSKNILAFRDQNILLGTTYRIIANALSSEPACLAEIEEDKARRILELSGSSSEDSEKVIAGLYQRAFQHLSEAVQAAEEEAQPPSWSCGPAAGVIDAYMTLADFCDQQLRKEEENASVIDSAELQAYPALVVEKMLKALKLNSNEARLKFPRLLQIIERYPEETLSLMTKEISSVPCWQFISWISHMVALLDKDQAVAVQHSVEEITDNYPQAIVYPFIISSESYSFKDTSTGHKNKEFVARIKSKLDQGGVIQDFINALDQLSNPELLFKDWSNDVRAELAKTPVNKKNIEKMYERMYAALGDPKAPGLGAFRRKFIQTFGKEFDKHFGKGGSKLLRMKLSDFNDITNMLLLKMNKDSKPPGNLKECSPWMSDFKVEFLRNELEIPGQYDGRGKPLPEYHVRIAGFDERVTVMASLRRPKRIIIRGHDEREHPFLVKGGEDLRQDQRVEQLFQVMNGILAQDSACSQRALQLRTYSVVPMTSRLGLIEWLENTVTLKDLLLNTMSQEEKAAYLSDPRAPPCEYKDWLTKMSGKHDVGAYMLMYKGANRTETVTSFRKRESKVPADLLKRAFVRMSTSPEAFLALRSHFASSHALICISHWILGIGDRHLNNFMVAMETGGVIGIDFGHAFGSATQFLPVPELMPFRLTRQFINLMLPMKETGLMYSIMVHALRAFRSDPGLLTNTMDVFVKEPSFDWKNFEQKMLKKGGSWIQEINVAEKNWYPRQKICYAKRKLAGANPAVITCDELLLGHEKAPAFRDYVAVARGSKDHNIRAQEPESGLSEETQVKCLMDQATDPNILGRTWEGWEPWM", "T1 sequence (Q96SD1 whole entry partner)": "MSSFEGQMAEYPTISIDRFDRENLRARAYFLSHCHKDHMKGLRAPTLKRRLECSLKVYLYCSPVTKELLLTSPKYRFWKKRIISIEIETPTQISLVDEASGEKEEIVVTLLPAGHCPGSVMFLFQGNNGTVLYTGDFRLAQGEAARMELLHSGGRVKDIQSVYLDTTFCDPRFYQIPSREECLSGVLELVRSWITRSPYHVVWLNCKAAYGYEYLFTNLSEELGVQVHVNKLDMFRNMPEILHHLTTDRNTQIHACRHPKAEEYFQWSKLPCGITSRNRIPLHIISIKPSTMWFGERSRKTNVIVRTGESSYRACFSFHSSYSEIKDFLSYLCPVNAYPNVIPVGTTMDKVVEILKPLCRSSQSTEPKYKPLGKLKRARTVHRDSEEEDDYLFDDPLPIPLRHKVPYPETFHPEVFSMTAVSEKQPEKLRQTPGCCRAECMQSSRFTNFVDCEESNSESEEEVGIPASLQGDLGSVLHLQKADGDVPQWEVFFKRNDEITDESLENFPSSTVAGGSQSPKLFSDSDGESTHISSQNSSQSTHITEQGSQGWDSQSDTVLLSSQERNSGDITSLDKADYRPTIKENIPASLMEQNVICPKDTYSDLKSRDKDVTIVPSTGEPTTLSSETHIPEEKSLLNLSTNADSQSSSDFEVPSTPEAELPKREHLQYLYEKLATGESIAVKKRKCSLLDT", "assay": "In vitro nuclease assay: effect of a DNA-PKcs inhibitor and of ATP analogs on hairpin opening", "format": "biochemical", "details": "for effect of DNA-PKcs (conferring hairpin opening activity on Artemis) when analog is used instead of ATP: 1 mM ATP analog, DFL16.1 hairpin, FIG. 5B lanes 5, 6", "experimental": "(§1) Nuclease assays without RAGs were carried out in a total volume of 10 μL with a buffer composition of 25 mM Tris, pH 8.0, 10-50 mM NaCl or KCl, 10 mM MgCl2, 1 mM DTT, and 50 ng/μL of BSA unless otherwise specified. To the buffer mixture, Artemis was added to 2.75 pmol, and DNA-PKcs and Ku were added to 1.25 pmol each. 0.25 mM of ATP (or ADP, ATP-y-S, AMP-PNP) and […] of 35 bp DNA were included where DNA-PKcs was used. Reactions were incubated at 37° C. for 30 minutes. In reactions including DNA-PKcs inhibitors, reaction mixtures without the substrate were incubated on ice for 15 minutes before the addition of the substrate and the subsequent incubation at 37° C. In FIG. 7, pre-phosphorylation of Artemis-myc-His immunobeads was carried out under DNA-PK kinase assay conditions. After washing the treated immunobeads with buffer F for three times and the nuclease assay buffer for two times, the beads were used for the nuclease reactions. In the hairpin opening of RAG-generated hairpins (FIG. 8), the reactions contained 25 mM K-HEPES, pH 7.4, 50 mM KCl, 10 mM MgCl2, 1 mM DTT, 0.25 pmol of labeled 12-RSS double-stranded oligonucleotides (KY28/KY29) and an equal amount of unlabeled 23-RSS double-stranded oligonucleotides (KY36/KY37), 1 pmol of RAGs (assuming that the RAG complex consists of two RAG-1 and two RAG-2 subunits), 2 pmol of HMG1, 2.75 pmol of Artemis-myc-His, and 1.25 pmol of DNA-PKcs (with ATP and 35 bp DNA as described above). For the sequential reactions, substrates were incubated with RAG complex alone first at 37° C. for 60 minutes, extracted with or without phenol/chloroform, then Artemis-myc-His and DNA-PKcs were added, followed by another 30-minute incubation at 37° C. Reactions with the RAG complex, Artemis, and DNA-PKcs added simultaneously were incubated for 90 minutes at the same temperature. After incubation, reactions were stopped by adding an equal volume of formamide gel loading buffer and beating at 100° C. for 5 minutes. DNA was resolved on 12% denaturing polyacrylamide gels. […] Data was analyzed by ImageQuant software (v5.0). […]"}, "[2]": {"system": "20 bp hairpin (DFL16.1)", "assay": "In vitro nuclease assay: hairpin opening by Artemis proteins", "format": "biochemical", "experimental": "as §1"}, "[3]": {"molecular_target": "dsDNA", "details": "read-out: equilibrium binding affinity for dsDNA; cited from earlier work"}}}
{"molecule": "Nc1ncnc2c1ncn2[C@@H]1O[C@H](COP(=O)(O)OP(=O)(O)NP(=O)(O)O)[C@@H](O)[C@H]1O", "note": "[AMP-PNP]", "values": [{"measurement": "effect of DNA-PKcs (conferring hairpin opening activity on Artemis) when analog is used instead of ATP", "setting": "[1]", "result": "largely suppressed"}]}
{"molecule": "D165N: D165N point mutant of Artemis, same expression vector as wild type", "values": [{"measurement": "hairpin opening activity", "setting": "[2]; in the presence of DNA-PKcs", "result": "lacks any hairpin opening activity"}]}
{"molecule": "Nc1ncnc2c1ncn2[C@@H]1O[C@H](COP(=O)(O)OP(=O)(O)O)[C@@H](O)[C@H]1O", "note": "[ADP]", "values": [{"measurement": "endonucleolytic activity on hairpins and 5′ ends, relative to ATP", "setting": "[1]; ADP instead of ATP, 20 bp artificial GC hairpin with 6-nucleotide 5′ overhang, FIG. 7 lane 3", "result": "lower level of endonucleolytic activity"}]}
{"molecule": "Artemis: full-length human Artemis with C-terminal myc-His tag, expressed in 293T cells, used on immunobeads as the enzyme", "values": [{"measurement": "hairpin opening", "setting": "[2]; Artemis alone, without DNA-PKcs, FIG. 5A lane 2", "result": "No hairpin opening"}, {"measurement": "hairpins opened during the time interval", "setting": "[2]; with DNA-PKcs present, 37° C., 30 minutes, FIG. 5A lanes 4-6, said to be probably an underestimation", "result": "about 40%"}]}
{"molecule": "Nc1ncnc2c1ncn2[C@@H]1O[C@H](COP(=O)(O)OP(=O)(O)OP(O)(O)=S)[C@@H](O)[C@H]1O", "note": "[ATP-γ-S]", "values": [{"measurement": "effect of DNA-PKcs (conferring hairpin opening activity on Artemis) when analog is used instead of ATP", "setting": "[1]", "result": "largely suppressed"}]}
{"molecule": "DNA-PKcs: native catalytic subunit of DNA-dependent protein kinase, 469 kDa, purified from HeLa cells", "values": [{"measurement": "Kd", "setting": "[3]", "result": "~1", "unit": "nM"}]}
